Data: the NIST ThermoML archive (doi:10.1021/acs.jced.7b00937)
Numbers after ± are expanded uncertainties.

Experiment: mn = molality of the nth substance listed, in mol/kg
Conditions: 100 kPa, Liquid, Capillary tube (Ostwald / Ubbelohde) method

| SMILES | viscosity (288.15 K, m1 = 0.05) | viscosity (288.15 K, m1 = 0.15) | viscosity (288.15 K, m1 = 0.25) | viscosity (288.15 K, m1 = 0.35) | viscosity (298.15 K, m1 = 0.05) | viscosity (298.15 K, m1 = 0.15) | viscosity (298.15 K, m1 = 0.25) | viscosity (298.15 K, m1 = 0.35) | viscosity (308.15 K, m1 = 0.05) | viscosity (308.15 K, m1 = 0.15) | viscosity (308.15 K, m1 = 0.25) | viscosity (308.15 K, m1 = 0.35) | viscosity (318.15 K, m1 = 0.05) | viscosity (318.15 K, m1 = 0.15) | viscosity (318.15 K, m1 = 0.25) | viscosity (318.15 K, m1 = 0.35) |
| --- | --- | --- | --- | --- | --- | --- | --- | --- | --- | --- | --- | --- | --- | --- | --- | --- |
| Cc1ncc(CO)c(CO)c1O.Cl [5-hydroxy-6-methyl-3,4-pyridinedimethanol hydrochloride] + O | 1.16 ± 0.021 mPa·s | 1.209 ± 0.021 mPa·s | 1.256 ± 0.021 mPa·s | 1.304 ± 0.021 mPa·s | 0.912 ± 0.021 mPa·s | 0.944 ± 0.021 mPa·s | 0.982 ± 0.021 mPa·s | 1.019 ± 0.021 mPa·s | 0.736 ± 0.02 mPa·s | 0.761 ± 0.021 mPa·s | 0.791 ± 0.021 mPa·s | 0.82 ± 0.021 mPa·s | 0.607 ± 0.02 mPa·s | 0.634 ± 0.02 mPa·s | 0.656 ± 0.02 mPa·s | 0.68 ± 0.02 mPa·s |
| Cc1ncc(C[n+]2csc(CCO)c2C)c(N)n1.Cl.[Cl-] [thiamine hydrochloride] + O | 1.179 ± 0.021 mPa·s | 1.27 ± 0.021 mPa·s | 1.368 ± 0.021 mPa·s | 1.473 ± 0.022 mPa·s | 0.917 ± 0.021 mPa·s | 0.986 ± 0.021 mPa·s | 1.059 ± 0.021 mPa·s | 1.146 ± 0.021 mPa·s | 0.748 ± 0.021 mPa·s | 0.803 ± 0.021 mPa·s | 0.851 ± 0.021 mPa·s | 0.91 ± 0.021 mPa·s | 0.615 ± 0.02 mPa·s | 0.658 ± 0.02 mPa·s | 0.703 ± 0.02 mPa·s | 0.749 ± 0.021 mPa·s |
